According to patent US20030161871A1, “Solubilized riboflavin” (priority 2001, published 2003):
Values after ≈ are worked out from the molar mass of the structure shown. Read-outs that look alike come from different tables or passages of the source.

Assays:
[1] = Solubilization of lumichrome in the FMN formulation; format: physicochemical
[2] = Solubility of riboflavin as a function of pH and % FMN; format: physicochemical; conditions: for solubility thermodynamic: thermodynamic from solid
Description: The equilibrium solubility of riboflavin is approximately 70 mcg/ml (see plot below with no FMN present). Precipitation is expected to occur if riboflavin reaches a level above this (due to riboflavin in drug substance or due to degradation to riboflavin with time), and precipitation would be unacceptable for patient safety with intravenous use.
Solubility of Riboflavin as a function of pH and % FMN [formula]
At 1% FMN, up to 365 mcg/ml of riboflavin can dissolve.

solubility thermodynamic ([2]; 1% FMN solution, aqueous with cosolvent or surfactant or cyclodextrin, read-out: riboflavin that can dissolve (equilibrium solubility)) [mg/mL] | solubility thermodynamic ([2]; 5% FMN solution, aqueous with cosolvent or surfactant or cyclodextrin, 5% FMN, pH 7-8, read-out: riboflavin that can dissolve (equilibrium solubility)) [mg/mL] | equilibrium solubility of riboflavin ([2]; no FMN present) | solubility thermodynamic ([2]; no FMN present, read-out: equilibrium solubility of riboflavin) [mg/mL] | Structure (SMILES) | solubility of lumichrome in the current formulation [1]
– | – | – | – | Cc1cc2nc3[nH]c(=O)[nH]c(=O)c3nc2cc1C [lumichrome] | dissolve at levels above the equilibrium solubility
≤ 0.365 | ≤ 1.32 | approximately 70 mcg/ml | ~0.07 (≈ 186 µM) | Cc1cc2nc3c(=O)[nH]c(=O)nc-3n(C[C@H](O)[C@H](O)[C@H](O)CO)c2cc1C [riboflavin] | –
